Test results as given in PubChem BioAssay AID1259407 (Chemical Carcinogenesis Research Information System (CCRIS), 2018).
Active and inactive are the calls of the source. No rule for the calls is given here.

System: CCRIS mutagenicity, Ames/micronucleus/aberration tests
Test: CCRIS mutagenicity studies
[1] = Test System: AMES SALMONELLA TYPHIMURIUM, Strain/Indicator: TA98, Metabolic Activation: RAT, LIVER, S-9, AROCLOR 1254, Method: STANDARD PLATE
[2] = Test System: AMES SALMONELLA TYPHIMURIUM, Strain/Indicator: TA100, Metabolic Activation: RAT, LIVER, S-9, AROCLOR 1254, Method: STANDARD PLATE
[3] = Test System: AMES SALMONELLA TYPHIMURIUM, Strain/Indicator: TA1535, Metabolic Activation: NONE, Method: STANDARD PLATE
[4] = Test System: AMES SALMONELLA TYPHIMURIUM, Strain/Indicator: TA1537, Metabolic Activation: NONE, Method: STANDARD PLATE
[5] = Test System: AMES SALMONELLA TYPHIMURIUM, Strain/Indicator: TA1538, Metabolic Activation: NONE, Method: STANDARD PLATE

Measured: mutagenic call

CCSCCC(N)C(=O)O (centres undefined)
inactive: Test System: AMES SALMONELLA TYPHIMURIUM, Strain/Indicator: TA97, Metabolic Activation: HAMSTER, LIVER, S-9, AROCLOR 1254 (10%), Method: PREINCUBATION inactive; negative | Test System: AMES SALMONELLA TYPHIMURIUM, Strain/Indicator: TA97, Metabolic Activation: HAMSTER, LIVER, S-9, AROCLOR 1254 (30%), Method: PREINCUBATION inactive; negative | Test System: AMES SALMONELLA TYPHIMURIUM, Strain/Indicator: TA97, Metabolic Activation: NONE, Method: PREINCUBATION inactive; negative | Test System: AMES SALMONELLA TYPHIMURIUM, Strain/Indicator: TA97, Metabolic Activation: RAT, LIVER, S-9, AROCLOR 1254 (10%), Method: PREINCUBATION inactive; negative | Test System: AMES SALMONELLA TYPHIMURIUM, Strain/Indicator: TA97, Metabolic Activation: RAT, LIVER, S-9, AROCLOR 1254 (30%), Method: PREINCUBATION inactive; negative | Test System: AMES SALMONELLA TYPHIMURIUM, Strain/Indicator: TA98, Metabolic Activation: HAMSTER, LIVER, S-9, AROCLOR 1254 (10%), Method: PREINCUBATION inactive; negative | Test System: AMES SALMONELLA TYPHIMURIUM, Strain/Indicator: TA98, Metabolic Activation: HAMSTER, LIVER, S-9, AROCLOR 1254 (30%), Method: PREINCUBATION inactive; negative | Test System: AMES SALMONELLA TYPHIMURIUM, Strain/Indicator: TA98, Metabolic Activation: NONE, Method: PREINCUBATION inactive; negative | Test System: AMES SALMONELLA TYPHIMURIUM, Strain/Indicator: TA98, Metabolic Activation: RAT, LIVER, S-9, AROCLOR 1254 (10%), Method: PREINCUBATION inactive; negative | Test System: AMES SALMONELLA TYPHIMURIUM, Strain/Indicator: TA98, Metabolic Activation: RAT, LIVER, S-9, AROCLOR 1254 (30%), Method: PREINCUBATION inactive; negative | Test System: AMES SALMONELLA TYPHIMURIUM, Strain/Indicator: TA100, Metabolic Activation: HAMSTER, LIVER, S-9, AROCLOR 1254 (10%), Method: PREINCUBATION inactive; negative | Test System: AMES SALMONELLA TYPHIMURIUM, Strain/Indicator: TA100, Metabolic Activation: HAMSTER, LIVER, S-9, AROCLOR 1254 (30%), Method: PREINCUBATION inactive; negative | Test System: AMES SALMONELLA TYPHIMURIUM, Strain/Indicator: TA100, Metabolic Activation: NONE, Method: PREINCUBATION inactive; negative | Test System: AMES SALMONELLA TYPHIMURIUM, Strain/Indicator: TA100, Metabolic Activation: RAT, LIVER, S-9, AROCLOR 1254 (10%), Method: PREINCUBATION inactive; negative | Test System: AMES SALMONELLA TYPHIMURIUM, Strain/Indicator: TA100, Metabolic Activation: RAT, LIVER, S-9, AROCLOR 1254 (30%), Method: PREINCUBATION inactive; negative | Test System: AMES SALMONELLA TYPHIMURIUM, Strain/Indicator: TA104, Metabolic Activation: HAMSTER, LIVER, S-9, AROCLOR 1254 (10%), Method: PREINCUBATION inactive; negative | Test System: AMES SALMONELLA TYPHIMURIUM, Strain/Indicator: TA104, Metabolic Activation: HAMSTER, LIVER, S-9, AROCLOR 1254 (30%), Method: PREINCUBATION inactive; negative | Test System: AMES SALMONELLA TYPHIMURIUM, Strain/Indicator: TA104, Metabolic Activation: NONE, Method: PREINCUBATION inactive; negative | Test System: AMES SALMONELLA TYPHIMURIUM, Strain/Indicator: TA104, Metabolic Activation: RAT, LIVER, S-9, AROCLOR 1254 (10%), Method: PREINCUBATION inactive; negative | Test System: AMES SALMONELLA TYPHIMURIUM, Strain/Indicator: TA104, Metabolic Activation: RAT, LIVER, S-9, AROCLOR 1254 (30%), Method: PREINCUBATION inactive; negative | Test System: AMES SALMONELLA TYPHIMURIUM, Strain/Indicator: TA1535, Metabolic Activation: HAMSTER, LIVER, S-9, AROCLOR 1254 (10%), Method: PREINCUBATION inactive; negative | Test System: AMES SALMONELLA TYPHIMURIUM, Strain/Indicator: TA1535, Metabolic Activation: HAMSTER, LIVER, S-9, AROCLOR 1254 (30%), Method: PREINCUBATION inactive; negative | Test System: AMES SALMONELLA TYPHIMURIUM, Strain/Indicator: TA1535, Metabolic Activation: NONE, Method: PREINCUBATION inactive; negative | Test System: AMES SALMONELLA TYPHIMURIUM, Strain/Indicator: TA1535, Metabolic Activation: RAT, LIVER, S-9, AROCLOR 1254 (10%), Method: PREINCUBATION inactive; negative | Test System: AMES SALMONELLA TYPHIMURIUM, Strain/Indicator: TA1535, Metabolic Activation: RAT, LIVER, S-9, AROCLOR 1254 (30%), Method: PREINCUBATION inactive; negative

C1CSCCS1
inactive: [1] inactive; negative | Test System: AMES SALMONELLA TYPHIMURIUM, Strain/Indicator: TA98, Metabolic Activation: S-9, Method: STANDARD PLATE inactive; negative | [2] inactive; negative | Test System: AMES SALMONELLA TYPHIMURIUM, Strain/Indicator: TA100, Metabolic Activation: S-9, Method: STANDARD PLATE inactive; negative | [3] inactive; negative | Test System: AMES SALMONELLA TYPHIMURIUM, Strain/Indicator: TA1535, Metabolic Activation: S-9, Method: STANDARD PLATE inactive; negative | [4] inactive; negative | Test System: AMES SALMONELLA TYPHIMURIUM, Strain/Indicator: TA1537, Metabolic Activation: S-9, Method: STANDARD PLATE inactive; negative | [5] inactive; negative | Test System: AMES SALMONELLA TYPHIMURIUM, Strain/Indicator: TA1538, Metabolic Activation: S-9, Method: STANDARD PLATE inactive; negative

NCCCC[C@H](N[C@@H](CCc1ccccc1)C(=O)O)C(=O)N1CCC[C@H]1C(=O)O
inactive: Test System: AMES SALMONELLA TYPHIMURIUM, Strain/Indicator: TA98, Metabolic Activation: NONE, Method: STANDARD PLATE inactive; negative | [1] inactive; negative | Test System: AMES SALMONELLA TYPHIMURIUM, Strain/Indicator: TA100, Metabolic Activation: NONE, Method: STANDARD PLATE inactive; negative | [2] inactive; negative | [3] inactive; negative | Test System: AMES SALMONELLA TYPHIMURIUM, Strain/Indicator: TA1535, Metabolic Activation: RAT, LIVER, S-9, AROCLOR 1254, Method: STANDARD PLATE inactive; negative | [4] inactive; negative | Test System: AMES SALMONELLA TYPHIMURIUM, Strain/Indicator: TA1537, Metabolic Activation: RAT, LIVER, S-9, AROCLOR 1254, Method: STANDARD PLATE inactive; negative | [5] inactive; negative | Test System: AMES SALMONELLA TYPHIMURIUM, Strain/Indicator: TA1538, Metabolic Activation: RAT, LIVER, S-9, AROCLOR 1254, Method: STANDARD PLATE inactive; negative | Test System: E. COLI, Strain/Indicator: WP2, Metabolic Activation: NONE, Method: STANDARD PLATE inactive; negative | Test System: E. COLI, Strain/Indicator: WP2, Metabolic Activation: RAT, LIVER, S-9, AROCLOR 1254, Method: STANDARD PLATE inactive; negative | Test System: E. COLI, Strain/Indicator: WP2 UVRA, Metabolic Activation: NONE, Method: STANDARD PLATE inactive; negative | Test System: E. COLI, Strain/Indicator: WP2 UVRA, Metabolic Activation: RAT, LIVER, S-9, AROCLOR 1254, Method: STANDARD PLATE inactive; negative
